From patent US9221809B2 (MERCK SHARP & DOHME CORP., priority 2011, dated 2015)

Target: IRAK4 (Homo sapiens (Human), UniProt Q9NWZ3)
Experiment: IRAK4 kinase activity, IMAP fluorescence polarization assay
Format: biochemical
Conditions: 100 μM ATP; read-out: IRAK4 IC50
Procedure, shortened: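 GST-tagged IRAK4 at 0.5 nM phosphorylates 100 nM fluorescent peptide substrate with 100 μM ATP in pH 7.2 Tris buffer containing MgCl2, DTT and Tween 20, 30 min at 25 °C. Reaction stopped with IMAP binding reagent; phosphorylation read as increased fluorescence polarization.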

Sequence of IRAK4 (Q9NWZ3 whole entry): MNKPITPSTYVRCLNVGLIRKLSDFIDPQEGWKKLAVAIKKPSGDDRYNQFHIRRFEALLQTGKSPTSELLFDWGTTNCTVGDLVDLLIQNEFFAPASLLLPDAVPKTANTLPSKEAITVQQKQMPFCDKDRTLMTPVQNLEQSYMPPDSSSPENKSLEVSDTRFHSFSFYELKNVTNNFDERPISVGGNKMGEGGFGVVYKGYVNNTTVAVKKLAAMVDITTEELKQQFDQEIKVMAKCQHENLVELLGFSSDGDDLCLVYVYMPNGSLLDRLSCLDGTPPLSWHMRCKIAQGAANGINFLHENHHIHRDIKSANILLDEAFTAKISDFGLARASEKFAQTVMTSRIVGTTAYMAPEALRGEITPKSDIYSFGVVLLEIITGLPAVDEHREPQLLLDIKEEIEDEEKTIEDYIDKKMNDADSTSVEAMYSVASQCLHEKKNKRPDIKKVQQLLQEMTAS

Row | Compound | IC50 [nM]
1 | O=c1[nH]c(N2CCN(c3nncs3)CC2)nc(N[C@@H]2CCCNC2)c1-c1nc2ccccc2s1 [Example 163, (R)-2-(4-(1,3,4-thiadiazol-2-yl)piperazin-1-yl)-5-(benzo[d]thiazol-2-yl)-6-(piperidin-3-ylamino)pyrimidin-4(3H)-one] | 20
2 | CN(C)[C@@H]1CCN(c2nc(N[C@@H]3CCCNC3)c(-c3ccc4ccccc4n3)c(=O)[nH]2)C1 [Example 164, 2-((R)-3-(dimethylamino)pyrrolidin-1-yl)-6-((R)-piperidin-3-ylamino)-5-(quinolin-2-yl)pyrimidin-4(3H)-one] | 62
3 | CC(=O)NC1CCN(c2nc(N[C@@H]3CCCNC3)c(-c3ccc4ccccc4n3)c(=O)[nH]2)C1 (stereo partly drawn) [Example 165, N-(1-(6-oxo-4-((R)-piperidin-3-ylamino)-5-(quinolin-2-yl)-1,6-dihydropyrimidin-2-yl)pyrrolidin-3-yl)acetamide] | 54
4 | CN(C)[C@H]1CCN(c2nc(N[C@@H]3CCCNC3)c(-c3ccc4ccccc4n3)c(=O)[nH]2)C1 [Example 166, 2-((S)-3-(dimethylamino)pyrrolidin-1-yl)-6-((R)-piperidin-3-ylamino)-5-(quinolin-2-yl)pyrimidin-4(3H)-one] | 158
5 | O=c1[nH]c(N2CCC(O)C2)nc(N[C@@H]2CCCNC2)c1-c1ccc2ccccc2n1 (stereo partly drawn) [Example 167, 2-(3-hydroxypyrrolidin-1-yl)-6-((R)-piperidin-3-ylamino)-5-(quinolin-2-yl)pyrimidin-4(3H)-one] | 20
6 | O=c1[nH]c(N2CC3CC3C2)nc(N[C@@H]2CCCNC2)c1-c1ccc2ccccc2n1 (stereo partly drawn) [Example 168, 2-(3-azabicyclo[3.1.0]hexan-3-yl)-6-((R)-piperidin-3-ylamino)-5-(quinolin-2-yl)pyrimidin-4(3H)-one] | 34
7 | CS(=O)(=O)C1CN(c2nc(N[C@@H]3CCCNC3)c(-c3ccc4ccccc4n3)c(=O)[nH]2)C1 [Example 169, (R)-2-(3-(methylsulfonyl)azetidin-1-yl)-6-(piperidin-3-ylamino)-5-(quinolin-2-yl)pyrimidin-4(3H)-one] | 32
8 | O=c1[nH]c(N2CC(O)(C(F)(F)F)C2)nc(N[C@@H]2CCCNC2)c1-c1ccc2ccccc2n1 [Example 170, (R)-2-(3-hydroxy-3-(trifluoromethyl)azetidin-1-yl)-6-(piperidin-3-ylamino)-5-(quinolin-2-yl)pyrimidin-4(3H)-one] | 18
9 | CC1(O)CN(c2nc(N[C@@H]3CCCNC3)c(-c3ccc4ccccc4n3)c(=O)[nH]2)C1 [Example 171, (R)-2-(3-hydroxy-3-methylazetidin-1-yl)-6-(piperidin-3-ylamino)-5-(quinolin-2-yl)pyrimidin-4(3H)-one] | 3150
10 | CC(C)(O)C1CN(c2nc(N[C@@H]3CCCNC3)c(-c3ccc4ccccc4n3)c(=O)[nH]2)C1 [Example 172, (R)-2-(3-(2-hydroxypropan-2-yl)azetidin-1-yl)-6-(piperidin-3-ylamino)-5-(quinolin-2-yl)pyrimidin-4(3H)-one] | 42
11 | CO[C@H]1CN(c2nc(N[C@@H]3CCCNC3)c(-c3ccc4ccccc4n3)c(=O)[nH]2)C[C@@H]1O [Example 173, 2-((3S,4S)-3-hydroxy-4-methoxypyrrolidin-1-yl)-6-((R)-piperidin-3-ylamino)-5-(quinolin-2-yl)pyrimidin-4(3H)-one] | 40
12 | O=c1[nH]c(N2CC3CC2CS(=O)(=O)C3)nc(N[C@@H]2CCCNC2)c1-c1ccc2ccccc2n1 (stereo partly drawn) [Example 174, 2-(3,3-dioxido-3-thia-6-azabicyclo[3.2.1]octan-6-yl)-6-((R)-piperidin-3-ylamino)-5-(quinolin-2-yl)pyrimidin-4(3H)-one] | 139
13 | O=c1[nH]c(N2C[C@H](F)[C@@H](F)C2)nc(N[C@@H]2CCCNC2)c1-c1ccc2ccccc2n1 [Example 175, 2-((3S,4S)-3,4-difluoropyrrolidin-1-yl)-6-((R)-piperidin-3-ylamino)-5-(quinolin-2-yl)pyrimidin-4(3H)-one] | 17
14 | COC1(C)CN(c2nc(N[C@@H]3CCCNC3)c(-c3ccc4ccccc4n3)c(=O)[nH]2)C1 [Example 176, (R)-2-(3-methoxy-3-methylazetidin-1-yl)-6-(piperidin-3-ylamino)-5-(quinolin-2-yl)pyrimidin-4(3H)-one] | 22
15 | O=c1[nH]c(N2CC[C@H](F)C2)nc(N[C@@H]2CCCNC2)c1-c1ccc2ccccc2n1 [Example 177, 2-((S)-3-fluoropyrrolidin-1-yl)-6-((R)-piperidin-3-ylamino)-5-(quinolin-2-yl)pyrimidin-4(3H)-one] | 13
16 | CO[C@H]1CCN(c2nc(N[C@@H]3CCCNC3)c(-c3ccc4ccccc4n3)c(=O)[nH]2)C1 [Example 178, 2-((S)-3-methoxypyrrolidin-1-yl)-6-((R)-piperidin-3-ylamino)-5-(quinolin-2-yl)pyrimidin-4(3H)-one] | 35
17 | O=c1[nH]c(N2CC[C@@H](CO)C2)nc(N[C@@H]2CCCNC2)c1-c1ccc2ccccc2n1 [Example 179, 2-((R)-3-(hydroxymethyl)pyrrolidin-1-yl)-6-((R)-piperidin-3-ylamino)-5-(quinolin-2-yl)pyrimidin-4(3H)-one] | 13
18 | O=c1[nH]c(N2CC[C@H](CO)C2)nc(N[C@@H]2CCCNC2)c1-c1ccc2ccccc2n1 [Example 180, 2-((S)-3-(hydroxymethyl)pyrrolidin-1-yl)-6-((R)-piperidin-3-ylamino)-5-(quinolin-2-yl)pyrimidin-4(3H)-one] | 15
19 | CC1(O)CCN(c2nc(N[C@@H]3CCCNC3)c(-c3ccc4ccccc4n3)c(=O)[nH]2)C1 (stereo partly drawn) [Example 181, 2-(3-hydroxy-3-methylpyrrolidin-1-yl)-6-((R)-piperidin-3-ylamino)-5-(quinolin-2-yl)pyrimidin-4(3H)-one] | 31
20 | O=c1[nH]c(N2CCCC2c2ccncc2)nc(N[C@@H]2CCCNC2)c1-c1ccc2ccccc2n1 (stereo partly drawn) [Example 182, 6-((R)-piperidin-3-ylamino)-2-(2-(pyridin-4-yl)pyrrolidin-1-yl)-5-(quinolin-2-yl)pyrimidin-4(3H)-one] | 3180
21 | O=c1[nH]c(N2CCC[C@H]2CF)nc(N[C@@H]2CCCNC2)c1-c1ccc2ccccc2n1 [Example 183, 2-((S)-2-(fluoromethyl)pyrrolidin-1-yl)-6-((R)-piperidin-3-ylamino)-5-(quinolin-2-yl)pyrimidin-4(3H)-one] | 85
22 | CC(C)(O)C1CCN(c2nc(N[C@@H]3CCCNC3)c(-c3ccc4ccccc4n3)c(=O)[nH]2)C1 (stereo partly drawn) [Example 184, 2-(3-(2-hydroxypropan-2-yl)pyrrolidin-1-yl)-6-((R)-piperidin-3-ylamino)-5-(quinolin-2-yl)pyrimidin-4(3H)-one] | 42
23 | CN1CCC2CCN(c3nc(N[C@@H]4CCCNC4)c(-c4ccc5ccccc5n4)c(=O)[nH]3)C2C1 (stereo partly drawn) [Example 185, 2-(6-methyloctahydro-1H-pyrrolo[2,3-c]pyridin-1-yl)-6-((R)-piperidin-3-ylamino)-5-(quinolin-2-yl)pyrimidin-4(3H)-one] | 851
24 | COC1CCN(c2nc(N[C@@H]3CCCNC3)c(-c3ccc4ccccc4n3)c(=O)[nH]2)C1 (stereo partly drawn) [Example 186, 2-(3-methoxypyrrolidin-1-yl)-6-((R)-piperidin-3-ylamino)-5-(quinolin-2-yl)pyrimidin-4(3H)-one] | 26
